Laboratory results: ChEMBL document CHEMBL1201862, “PubChem BioAssay data set” (2004)
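Grown in 96-well plates, cells were treated for 48 hours with each compound at five concentrations. Insufficient inhibition: endpoint recorded as highest concentration tested. Here, GI50 denotes the concentration required for 50% inhibition of growth.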 Calls of active or inactive are those of the source. No stated cut-off is given here; in the data, active = GI50 up to about 1.1 µM and inactive = higher.

Columns and labels:
Assay in all cases: inhibition of tumour cell growth, NCI panel, 48 h
M14 = tested on: M14
NCI-H522 = tested on: NCI-H522
OVCAR-5 = tested on: OVCAR-5
SNB-19 = tested on: SNB-19
MDA-MB-435 = tested on: MDA-MB-435
U-251 = tested on: U-251
SK-OV-3 = tested on: SK-OV-3
NCI-H460 = tested on: NCI-H460
SF-539 = tested on: SF-539
EKVX = tested on: EKVX
Malme-3M = tested on: Malme-3M
SK-MEL-28 = tested on: SK-MEL-28
MCF7 = tested on: MCF7
RPMI-8226 = tested on: RPMI-8226
HCT-116 = tested on: HCT-116
MOLT-4 = tested on: MOLT-4
CAKI-1 = tested on: CAKI-1
A549 = tested on: A549
A498 = tested on: A498
MDA-N = tested on: MDA-N

SMILES | GI50 (M14) | GI50 (NCI-H522) | GI50 (OVCAR-5) | GI50 (SNB-19) | GI50 (MDA-MB-435) | GI50 (U-251) | GI50 (SK-OV-3) | GI50 (NCI-H460) | GI50 (SF-539) | GI50 (EKVX) | GI50 (Malme-3M) | GI50 (SK-MEL-28) | GI50 (MCF7) | GI50 (RPMI-8226) | GI50 (HCT-116) | GI50 (MOLT-4) | GI50 (CAKI-1) | GI50 (A549) | GI50 (A498) | GI50 (MDA-N)
COc1ccc(-c2nc(-c3cc4ccccc4oc3=O)cs2)cc1 | > 100 µM (inactive) | > 100 µM (inactive) | > 100 µM (inactive) | 30.1 µM (inactive) | > 100 µM (inactive) | 21.9 µM (inactive) | 29.6 µM (inactive) | 59.2 µM (inactive) | 30.9 µM (inactive) | > 100 µM (inactive) | > 100 µM (inactive) | > 100 µM (inactive) | > 100 µM (inactive) | > 100 µM (inactive) | 37.8 µM (inactive) | > 100 µM (inactive) | > 100 µM (inactive) | 85.7 µM (inactive) |  | 
CC1(CO)C(O)CCC2(C)C1CCC1CC3CC12CCC3(O)CO (stereo unspecified) |  | > 28.2 µM (inactive) | > 36.9 µM (inactive) | > 79.1 µM (inactive) |  | 4.53 µM (inactive) | > 100 µM (inactive) | 0.333 µM (active) | 2.9 µM (inactive) | > 64.6 µM (inactive) | > 76.2 µM (inactive) | > 100 µM (inactive) | 5.04 µM (inactive) | 2.31 µM (inactive) | 2.39 µM (inactive) | 5.12 µM (inactive) | 3.15 µM (inactive) | 2.71 µM (inactive) | 7.6 µM (inactive) | 
CCOC(=O)C(C)NC(=O)N(C)C12CC3CC(CC(C3)C1)C2 (stereo unspecified) |  | 135 µM (inactive) | > 500 µM (inactive) | 412 µM (inactive) |  | 308 µM (inactive) | 237 µM (inactive) | 192 µM (inactive) | 344 µM (inactive) | 450 µM (inactive) | 194 µM (inactive) | 317 µM (inactive) | 139 µM (inactive) | 125 µM (inactive) | 173 µM (inactive) | 63.2 µM (inactive) | 231 µM (inactive) | 197 µM (inactive) | 116 µM (inactive) | 
CCOC(=O)c1csc(-c2nc(CCNC(=O)c3ccccc3)sc2Cl)n1 | 58.5 µM (inactive) |  | > 100 µM (inactive) | > 100 µM (inactive) | 62.7 µM (inactive) | 73.8 µM (inactive) | > 100 µM (inactive) | 34.4 µM (inactive) | > 100 µM (inactive) | > 100 µM (inactive) | > 100 µM (inactive) | 56.6 µM (inactive) | 67.6 µM (inactive) | 44 µM (inactive) | 47 µM (inactive) | 34.3 µM (inactive) |  | > 100 µM (inactive) | 15.4 µM (inactive) | > 100 µM (inactive)
COc1ccc(-c2nc3ccccc3c(=S)n2OC(C)=O)cc1 | 4.98 µM (inactive) |  | > 25 µM (inactive) | 21.1 µM (inactive) | 7.1 µM (inactive) | 2.56 µM (inactive) | 5.71 µM (inactive) | 1.05 µM (active) | 4.89 µM (inactive) | 6.46 µM (inactive) | 4.76 µM (inactive) | 6.5 µM (inactive) | 5.92 µM (inactive) | 3.27 µM (inactive) | 1.91 µM (inactive) | 1.15 µM (inactive) | 5.9 µM (inactive) | 2.5 µM (inactive) | 23.9 µM (inactive) | 12 µM (inactive)
CN(C)CCNc1c([N+](=O)[O-])cc2c3c(cccc13)C(=O)N(CCN(C)C)C2=O |  | 1.25 µM (inactive) | 2.03 µM (inactive) | 1.59 µM (inactive) |  | 1.82 µM (inactive) | 1.76 µM (inactive) | 0.653 µM (active) | 2.16 µM (inactive) | 2.15 µM (inactive) | 0.635 µM (active) | 1.67 µM (inactive) | 1.22 µM (inactive) | 2.33 µM (inactive) | 0.552 µM (active) | 0.476 µM (active) | 2.13 µM (inactive) | 1.84 µM (inactive) | 1.67 µM (inactive) | 
N#C/C(C(=O)Nc1ccc(Cl)cc1)=C(/N)N1CCOCC1 | 86.3 µM (inactive) |  | > 100 µM (inactive) | > 100 µM (inactive) | 56.9 µM (inactive) | > 100 µM (inactive) | > 100 µM (inactive) | > 100 µM (inactive) | > 100 µM (inactive) | > 100 µM (inactive) |  | 76 µM (inactive) | > 100 µM (inactive) | > 100 µM (inactive) | > 100 µM (inactive) | 64 µM (inactive) | > 100 µM (inactive) | > 100 µM (inactive) | > 100 µM (inactive) | 61.8 µM (inactive)
CC1(C)S[C@@H]2[C@H](NC(=O)CCC[C@@H](N)C(=O)O)C(=O)N2[C@H]1C(=O)O [ADICILLIN] |  | > 50 µM (inactive) | 23.3 µM (inactive) | > 50 µM (inactive) |  | > 25.6 µM (inactive) | > 41 µM (inactive) | > 50 µM (inactive) | > 50 µM (inactive) | > 50 µM (inactive) | > 50 µM (inactive) | > 50 µM (inactive) | > 50 µM (inactive) | > 50 µM (inactive) | > 50 µM (inactive) | > 50 µM (inactive) | > 50 µM (inactive) | > 50 µM (inactive) | > 44.7 µM (inactive) | 
N#Cc1c2c(c(N)oc1=O)C(c1ccccc1)CC(=O)N2 (stereo unspecified) | > 100 µM (inactive) | > 100 µM (inactive) | > 100 µM (inactive) | > 100 µM (inactive) | > 100 µM (inactive) | > 100 µM (inactive) | > 100 µM (inactive) | > 100 µM (inactive) | > 100 µM (inactive) | > 100 µM (inactive) | > 100 µM (inactive) | > 100 µM (inactive) | > 100 µM (inactive) | > 100 µM (inactive) | > 100 µM (inactive) | > 100 µM (inactive) | > 100 µM (inactive) | > 100 µM (inactive) |  | > 100 µM (inactive)
COc1ccc2cc(C(C)C(=O)N3C(=O)OCC3(C)C)ccc2c1 (stereo unspecified) | > 100 µM (inactive) |  | > 100 µM (inactive) | > 100 µM (inactive) | > 100 µM (inactive) | > 100 µM (inactive) | > 100 µM (inactive) | > 100 µM (inactive) |  | > 100 µM (inactive) | > 100 µM (inactive) | > 100 µM (inactive) | > 100 µM (inactive) | > 100 µM (inactive) | > 100 µM (inactive) | > 100 µM (inactive) |  | > 100 µM (inactive) | > 100 µM (inactive) | > 100 µM (inactive)
Oc1ccc(O)c(CNc2ccccc2)c1 | 15.7 µM (inactive) | 1.94 µM (inactive) | 21.6 µM (inactive) | 19.5 µM (inactive) | 8.81 µM (inactive) | 17.1 µM (inactive) | 19.2 µM (inactive) | 20.8 µM (inactive) | 3.46 µM (inactive) | 18.7 µM (inactive) | 14.2 µM (inactive) | 33 µM (inactive) | 15.1 µM (inactive) | 1.02 µM (active) | 7.26 µM (inactive) | 2.26 µM (inactive) | 6.89 µM (inactive) | 26.4 µM (inactive) |  | 3.85 µM (inactive)
CC(C)c1ccc2c(c1)C=C1OC(=O)[C@]3(C)CCC[C@@]2(C)C13 (stereo partly specified) | > 100 µM (inactive) | 73.5 µM (inactive) |  | > 100 µM (inactive) | > 100 µM (inactive) | > 100 µM (inactive) | > 100 µM (inactive) | > 100 µM (inactive) | > 100 µM (inactive) | > 100 µM (inactive) |  | > 100 µM (inactive) | > 100 µM (inactive) | > 100 µM (inactive) | > 100 µM (inactive) | > 100 µM (inactive) | > 100 µM (inactive) | > 100 µM (inactive) |  | > 100 µM (inactive)
CC(=O)c1sc2n(C)c(=O)c3ccccc3[n+]2c1C | > 100 µM (inactive) | > 100 µM (inactive) | > 100 µM (inactive) | > 100 µM (inactive) | > 100 µM (inactive) | > 100 µM (inactive) | > 100 µM (inactive) | > 100 µM (inactive) | > 100 µM (inactive) | > 100 µM (inactive) |  | > 100 µM (inactive) | > 100 µM (inactive) | > 100 µM (inactive) | > 100 µM (inactive) | > 100 µM (inactive) | > 100 µM (inactive) | > 100 µM (inactive) |  | > 100 µM (inactive)
O=C1C(Cl)=C(OCCCl)C(=O)c2c(O)ccc(O)c21 | 1.88 µM (inactive) |  | 17.7 µM (inactive) | 16.7 µM (inactive) |  | 14.3 µM (inactive) | 18.2 µM (inactive) | 18.5 µM (inactive) | 17.3 µM (inactive) | 18.6 µM (inactive) | 2.89 µM (inactive) | 4.06 µM (inactive) | 2.06 µM (inactive) | 0.74 µM (active) | 0.755 µM (active) | 0.212 µM (active) | 2.38 µM (inactive) | 20 µM (inactive) | 20.5 µM (inactive) | 2.91 µM (inactive)
COc1cc(/C=C2\CCc3ccccc3C2=O)ccc1O | 17.9 µM (inactive) |  | 14.2 µM (inactive) | 14.6 µM (inactive) |  | 16.9 µM (inactive) | 26 µM (inactive) | 17.3 µM (inactive) | 16.1 µM (inactive) | 25.4 µM (inactive) |  | 21.1 µM (inactive) | 11.1 µM (inactive) | 17.9 µM (inactive) |  | 12 µM (inactive) | 24.3 µM (inactive) | 22.1 µM (inactive) | > 10 µM (inactive) | 
COC(=O)C1CC2(c3ccccc3)C(=O)c3ccccc3N2O1 (stereo unspecified) | > 100 µM (inactive) | 15.5 µM (inactive) | > 100 µM (inactive) | > 100 µM (inactive) |  | 69.2 µM (inactive) | > 100 µM (inactive) | 47.3 µM (inactive) | 67 µM (inactive) | > 100 µM (inactive) | > 100 µM (inactive) | 91.8 µM (inactive) |  | 17.7 µM (inactive) | 46.9 µM (inactive) | 22.1 µM (inactive) | 36.5 µM (inactive) | > 100 µM (inactive) | > 100 µM (inactive) | 
